In this test the target is T1, recombinant full-length USP7 (Homo sapiens, UniProt Q93009).
T1 construct: A 25 μl reaction volume containing recombinant full-length USP7 (62 pM)
Briefly: USP7-mediated ubiquitin-rhodamine cleavage assay. Type of test: biochemical. As to conditions: recombinant full-length USP7 62 pM, ubiquitin-rhodamine 100 nM, 1 hour reaction at room temperature. In outline: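 Compounds are first incubated with 62 pM enzyme for 30 min at room temperature in pH 7.3 HEPES buffer containing TCEP and BSA. Cleavage of 100 nM ubiquitin-rhodamine proceeds for 1 h before an acid quench, and IC50 is derived from fluorescence.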

The mark [1] stands for this setting: 30-minute pre-incubation, read-out: Potency (USP7 IC50).
Where [2] appears, read: 30-minute incubation with compound, read-out: Potency: USP7 IC50.

Like-named read-outs stand apart in the source and are kept apart here. Some results are limits rather than exact numbers.

Usually IC50 stands for the concentration that inhibits the measured activity by half.

T1 sequence (Q93009 whole entry): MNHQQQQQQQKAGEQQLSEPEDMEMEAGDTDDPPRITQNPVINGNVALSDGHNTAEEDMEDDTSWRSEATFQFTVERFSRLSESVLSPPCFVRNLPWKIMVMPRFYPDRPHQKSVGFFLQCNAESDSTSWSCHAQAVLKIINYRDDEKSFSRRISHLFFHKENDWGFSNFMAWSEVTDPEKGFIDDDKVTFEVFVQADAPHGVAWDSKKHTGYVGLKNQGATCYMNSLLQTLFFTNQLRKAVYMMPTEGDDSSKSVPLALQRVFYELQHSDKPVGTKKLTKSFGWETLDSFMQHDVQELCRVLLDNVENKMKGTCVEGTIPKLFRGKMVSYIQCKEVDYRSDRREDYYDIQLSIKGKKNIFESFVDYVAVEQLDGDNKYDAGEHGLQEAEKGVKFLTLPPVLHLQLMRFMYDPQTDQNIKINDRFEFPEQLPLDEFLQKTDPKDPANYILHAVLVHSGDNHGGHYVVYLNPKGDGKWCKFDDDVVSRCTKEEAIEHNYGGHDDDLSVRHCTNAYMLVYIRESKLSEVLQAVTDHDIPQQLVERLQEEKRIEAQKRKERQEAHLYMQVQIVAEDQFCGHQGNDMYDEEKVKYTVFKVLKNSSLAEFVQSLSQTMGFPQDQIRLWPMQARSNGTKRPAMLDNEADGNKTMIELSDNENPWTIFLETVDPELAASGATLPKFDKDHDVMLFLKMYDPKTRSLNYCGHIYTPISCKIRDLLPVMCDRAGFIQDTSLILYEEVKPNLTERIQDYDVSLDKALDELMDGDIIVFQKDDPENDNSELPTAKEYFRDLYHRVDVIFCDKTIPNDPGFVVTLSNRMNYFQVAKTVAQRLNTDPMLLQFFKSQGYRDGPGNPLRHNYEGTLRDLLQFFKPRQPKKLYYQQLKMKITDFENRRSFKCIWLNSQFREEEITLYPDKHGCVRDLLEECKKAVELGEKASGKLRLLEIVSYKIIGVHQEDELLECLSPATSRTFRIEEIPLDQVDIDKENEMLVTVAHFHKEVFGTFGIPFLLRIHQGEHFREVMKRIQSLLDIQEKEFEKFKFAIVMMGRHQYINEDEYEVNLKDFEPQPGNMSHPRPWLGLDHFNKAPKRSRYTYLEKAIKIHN

In the case of `Cc1cc(Cl)cc(-c2ncnc3cc(CN4C(=O)C5CC5C4=O)sc23)c1OC1CCCNC1` (centres unmarked) [Example 412, 3-[[4-[5-chloro-3-methyl-2-(3-piperidyloxy)phenyl]thieno[3,2-d]pyrimidin-6-yl]methyl]-3-azabicyclo[3.1.0]hexane-2,4-dione], under setting [1], the 50% inhibitory concentration (IC50) was < 1 µM.
Same read-out and setting: to `COCCN1CC[C@@H](Oc2c(C)cc(Cl)cc2-c2ccnc3cc(Cn4c(=O)ccn(CC(F)(F)F)c4=O)sc23)[C@H](C)C1` [Example 654, 3-[[7-[5-chloro-2-[[(3R,4R)-1-(2-methoxyethyl)-3-methyl-4-piperidyl]oxy]-3-methyl-phenyl]thieno[3,2-b]pyridin-2-yl]methyl]-1-(2,2,2-trifluoroethyl)pyrimidine-2,4-dione] belongs < 1 µM.
In the case of `CCC(O)c1cc2nccc(-c3cc(C#N)cc(C)c3OCC3(F)CNC3)c2s1` (centres unmarked) [Example 36, 4-((3-Fluoroazetidin-3-yl)methoxy)-3-(2-(1-hydroxypropyl)thieno[3,2-b]pyridin-7-yl)-5-methylbenzonitrile], the 50% inhibitory concentration (IC50) under setting [2] fell in the range of 1 to 10 µM.
The same measure, in the same setting: in the case of `CC[C@@H](c1cc2nccc(-c3cc(Cl)cc(C)c3O[C@@H]3CNC[C@@H]3F)c2s1)N1C(=O)CCC1=O` [Example 137, 1-((S)-1-(7-(5-Chloro-2-(((3R,4S)-4-fluoropyrrolidin-3-yl)oxy)-3-methylphenyl)thieno[3,2-b]pyridin-2-yl)propyl)pyrrolidine-2,5-dione] it was < 1 µM.
Turning to `Cc1cc(Cl)cc(-c2ccncc2CCCN2C(=O)CCC2=O)c1OC1CCNCC1` [Example 411, 1-[3-[4-[5-chloro-3-methyl-2-(4-piperidyloxy)phenyl]-3-pyridyl]propyl]pyrrolidine-2,5-dione; 2,2,2-trifluoroacetic acid], under setting [1], the IC50 is 1 to 10 µM.
For the compound `CCC(O)c1cc2nccc(-c3cc(Cl)cc(C)c3OCC3CCNCC3)c2s1` (centres unmarked) [Example 204, 1-(7-(5-Chloro-3-methyl-2-(piperidin-4-ylmethoxy)phenyl)thieno[3,2-b]pyridin-2-yl)propan-1-ol], the half-maximal inhibitory concentration (IC50) under setting [2] was in the range of 10 to 30 µM.
For `Cc1cc(Cl)cc(-c2ccnc3cc(Cn4c(=O)ccn(CC(F)(F)F)c4=O)sc23)c1O[C@H]1CNC[C@H]1C` [Example 626, 3-[[7-[5-chloro-3-methyl-2-[(3R,4R)-4-methylpyrrolidin-3-yl]oxy-phenyl]thieno[3,2-b]pyridin-2-yl]methyl]-1-(2,2,2-trifluoroethyl)pyrimidine-2,4-dione], under setting [1], the IC50 is < 1 µM.
As for `Cc1cc(Cl)cc(-c2ccnc3cc(CO)sc23)c1OC1CC2(CNC2)C1` [Example 48, (7-(2-((2-Azaspiro[3.3]heptan-6-yl)oxy)-5-chloro-3-methylphenyl)thieno[3,2-b]pyridin-2-yl)methanol], the IC50 under setting [2] was in the range of 10 to 30 µM.
